Results taken from the kinase profiling compilation of Christmann-Franck et al. (2016).

What was measured:
Test in all cases: radiometric filter-binding kinase assay, Kinase HotSpot
Conditions in all cases: compound 0.5 µM; ATP 10 µM
ABL2 (human) = ABL2 (human) (UniProt P42684)
ACVRL1 (human) = ACVRL1 (human) (UniProt P37023)
AKT1 (human) = AKT1 (human) (UniProt P31749)
BRSK1 (human) = BRSK1 (human) (UniProt Q8TDC3)
CAMK2A (human) = CAMK2A (human) (UniProt Q9UQM7)
CAMK2B (human) = CAMK2B (human) (UniProt Q13554)
CDK2 CCNA2 (human) = CDK2 CCNA2 (human) (UniProt P24941+P20248)
CLK1 (human) = CLK1 (human) (UniProt P49759)
DSTYK (human) = DSTYK (human) (UniProt Q6XUX3)
DYRK2 (human) = DYRK2 (human) (UniProt Q92630)
DYRK4 (human) = DYRK4 (human) (UniProt Q9NR20)
FGFR1 (human) = FGFR1 (human) (UniProt P11362)
FGFR3 (human) = FGFR3 (human) (UniProt P22607)
[1] = system: FLT4 (human), P35916 [Q890H]
FRK (human) = FRK (human) (UniProt P42685)
FYN (human) = FYN (human) (UniProt P06241)
GRK7 (human) = GRK7 (human) (UniProt Q8WTQ7)
ITK (human) = ITK (human) (UniProt Q08881)
[2] = system: MAP2K6 (human), P52564 [S207E/T211E]
MAP3K5 (human) = MAP3K5 (human) (UniProt Q99683)
MAP4K5 (human) = MAP4K5 (human) (UniProt Q9Y4K4)
MAPK14 (human) = MAPK14 (human) (UniProt Q16539)
MAPK3 (human) = MAPK3 (human) (UniProt P27361)
MAPK8 (human) = MAPK8 (human) (UniProt P45983)
MERTK (human) = MERTK (human) (UniProt Q12866)
MINK1 (human) = MINK1 (human) (UniProt Q8N4C8)
NEK11 (human) = NEK11 (human) (UniProt Q8NG66)
NEK2 (human) = NEK2 (human) (UniProt P51955)
NUAK1 (human) = NUAK1 (human) (UniProt O60285)
PAK4 (human) = PAK4 (human) (UniProt O96013)
PAK7 (human) = PAK7 (human) (UniProt Q9P286)
PHKG1 (human) = PHKG1 (human) (UniProt Q16816)
PTK2B (human) = PTK2B (human) (UniProt Q14289)
ROCK2 (human) = ROCK2 (human) (UniProt O75116)
RPS6KA6 KD1 KD2 (human) = RPS6KA6 KD1 KD2 (human) (UniProt Q9UK32)
STK10 (human) = STK10 (human) (UniProt O94804)
STK11 (human) = STK11 (human) (UniProt Q15831)
STK24 (human) = STK24 (human) (UniProt Q9Y6E0)
STK25 (human) = STK25 (human) (UniProt O00506)
[3] = target: TYK2 JH1 catalytic (human) (UniProt P29597)
WNK2 (human) = WNK2 (human) (UniProt Q9Y3S1)
ZAP70 (human) = ZAP70 (human) (UniProt P43403)

Sequence of FGFR1 (human) (P11362 whole entry, looked up): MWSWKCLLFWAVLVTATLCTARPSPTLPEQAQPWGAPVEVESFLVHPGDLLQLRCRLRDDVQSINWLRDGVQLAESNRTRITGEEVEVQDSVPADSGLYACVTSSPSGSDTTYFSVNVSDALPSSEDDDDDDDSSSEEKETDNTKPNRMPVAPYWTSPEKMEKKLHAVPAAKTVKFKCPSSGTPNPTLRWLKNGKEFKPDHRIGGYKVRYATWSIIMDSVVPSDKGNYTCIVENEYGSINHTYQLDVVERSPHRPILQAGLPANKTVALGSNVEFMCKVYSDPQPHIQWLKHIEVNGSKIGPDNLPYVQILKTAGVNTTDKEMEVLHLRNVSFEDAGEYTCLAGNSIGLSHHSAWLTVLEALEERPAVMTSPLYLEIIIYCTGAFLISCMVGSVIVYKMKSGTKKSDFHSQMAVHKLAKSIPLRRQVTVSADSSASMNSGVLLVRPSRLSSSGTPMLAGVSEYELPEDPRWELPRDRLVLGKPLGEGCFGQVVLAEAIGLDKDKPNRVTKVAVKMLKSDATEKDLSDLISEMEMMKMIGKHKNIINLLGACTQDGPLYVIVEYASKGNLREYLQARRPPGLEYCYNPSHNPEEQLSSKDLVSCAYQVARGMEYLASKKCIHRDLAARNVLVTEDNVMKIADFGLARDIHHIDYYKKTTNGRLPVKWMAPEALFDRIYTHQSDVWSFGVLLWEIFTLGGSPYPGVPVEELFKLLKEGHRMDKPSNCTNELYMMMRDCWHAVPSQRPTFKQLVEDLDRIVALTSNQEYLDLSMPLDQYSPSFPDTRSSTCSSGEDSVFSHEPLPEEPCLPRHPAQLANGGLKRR
Sequence of PHKG1 (human) (Q16816 whole entry, looked up): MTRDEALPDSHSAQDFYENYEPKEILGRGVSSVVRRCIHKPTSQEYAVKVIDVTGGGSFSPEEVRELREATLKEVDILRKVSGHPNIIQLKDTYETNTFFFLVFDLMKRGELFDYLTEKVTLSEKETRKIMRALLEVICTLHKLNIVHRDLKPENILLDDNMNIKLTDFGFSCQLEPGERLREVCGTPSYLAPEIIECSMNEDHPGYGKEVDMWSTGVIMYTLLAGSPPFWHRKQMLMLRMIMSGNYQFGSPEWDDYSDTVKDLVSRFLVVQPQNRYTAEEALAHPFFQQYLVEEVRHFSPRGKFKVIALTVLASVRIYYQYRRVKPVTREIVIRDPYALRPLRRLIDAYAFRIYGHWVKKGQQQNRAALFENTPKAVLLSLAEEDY
Sequence of FGFR3 (human) (P22607 whole entry, looked up): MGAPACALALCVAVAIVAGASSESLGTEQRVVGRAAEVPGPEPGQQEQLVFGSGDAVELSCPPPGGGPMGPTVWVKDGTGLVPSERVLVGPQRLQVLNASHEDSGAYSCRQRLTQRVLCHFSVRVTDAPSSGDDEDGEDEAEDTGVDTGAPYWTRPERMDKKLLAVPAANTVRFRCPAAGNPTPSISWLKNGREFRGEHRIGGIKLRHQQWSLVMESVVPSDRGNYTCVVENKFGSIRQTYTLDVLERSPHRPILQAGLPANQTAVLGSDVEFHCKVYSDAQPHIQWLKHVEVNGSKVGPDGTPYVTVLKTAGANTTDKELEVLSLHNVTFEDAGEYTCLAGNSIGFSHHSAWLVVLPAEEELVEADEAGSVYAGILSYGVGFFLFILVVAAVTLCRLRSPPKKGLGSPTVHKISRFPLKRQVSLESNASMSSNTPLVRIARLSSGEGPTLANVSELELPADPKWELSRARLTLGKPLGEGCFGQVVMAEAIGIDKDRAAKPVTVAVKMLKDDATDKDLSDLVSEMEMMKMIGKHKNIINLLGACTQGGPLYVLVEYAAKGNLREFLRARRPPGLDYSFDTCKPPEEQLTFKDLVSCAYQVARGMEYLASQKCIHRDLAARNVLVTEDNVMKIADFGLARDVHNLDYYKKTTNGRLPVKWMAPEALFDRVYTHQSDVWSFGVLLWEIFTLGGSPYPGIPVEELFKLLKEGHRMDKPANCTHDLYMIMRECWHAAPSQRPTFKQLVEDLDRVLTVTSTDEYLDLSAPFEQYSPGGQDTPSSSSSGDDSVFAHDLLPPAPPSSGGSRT
Sequence of DYRK4 (human) (Q9NR20 whole entry, looked up): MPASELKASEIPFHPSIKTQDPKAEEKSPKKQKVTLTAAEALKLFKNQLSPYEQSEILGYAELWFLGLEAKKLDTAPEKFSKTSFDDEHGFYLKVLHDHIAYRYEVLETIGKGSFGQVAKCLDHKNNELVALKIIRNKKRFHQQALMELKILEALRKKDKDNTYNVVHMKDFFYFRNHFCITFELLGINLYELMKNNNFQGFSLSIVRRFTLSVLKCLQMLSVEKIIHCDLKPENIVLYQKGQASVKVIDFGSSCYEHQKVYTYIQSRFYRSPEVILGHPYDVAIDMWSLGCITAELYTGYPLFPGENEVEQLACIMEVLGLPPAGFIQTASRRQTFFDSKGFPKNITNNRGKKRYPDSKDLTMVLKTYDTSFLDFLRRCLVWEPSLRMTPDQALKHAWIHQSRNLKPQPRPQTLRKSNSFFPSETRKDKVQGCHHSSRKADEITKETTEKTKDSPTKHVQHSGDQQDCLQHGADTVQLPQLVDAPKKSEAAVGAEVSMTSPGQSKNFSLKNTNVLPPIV
Sequence of NUAK1 (human) (O60285 whole entry, looked up): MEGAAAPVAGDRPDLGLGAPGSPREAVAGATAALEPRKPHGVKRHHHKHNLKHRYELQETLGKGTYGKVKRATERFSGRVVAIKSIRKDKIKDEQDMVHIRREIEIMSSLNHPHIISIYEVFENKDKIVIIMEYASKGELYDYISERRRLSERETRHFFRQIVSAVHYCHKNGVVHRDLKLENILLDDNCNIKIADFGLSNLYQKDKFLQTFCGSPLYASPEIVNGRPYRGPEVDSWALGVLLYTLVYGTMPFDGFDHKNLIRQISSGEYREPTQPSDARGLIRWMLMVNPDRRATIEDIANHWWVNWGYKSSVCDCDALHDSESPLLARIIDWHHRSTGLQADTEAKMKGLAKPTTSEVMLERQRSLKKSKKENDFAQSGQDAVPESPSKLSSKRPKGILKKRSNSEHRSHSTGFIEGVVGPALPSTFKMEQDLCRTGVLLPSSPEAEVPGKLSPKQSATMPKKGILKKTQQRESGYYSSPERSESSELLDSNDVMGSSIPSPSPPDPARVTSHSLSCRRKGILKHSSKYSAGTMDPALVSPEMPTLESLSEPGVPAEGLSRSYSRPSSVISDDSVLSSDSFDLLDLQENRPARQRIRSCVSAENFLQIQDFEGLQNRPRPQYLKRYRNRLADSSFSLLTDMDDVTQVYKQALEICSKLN
Sequence of PAK7 (human) (Q9P286 whole entry, looked up): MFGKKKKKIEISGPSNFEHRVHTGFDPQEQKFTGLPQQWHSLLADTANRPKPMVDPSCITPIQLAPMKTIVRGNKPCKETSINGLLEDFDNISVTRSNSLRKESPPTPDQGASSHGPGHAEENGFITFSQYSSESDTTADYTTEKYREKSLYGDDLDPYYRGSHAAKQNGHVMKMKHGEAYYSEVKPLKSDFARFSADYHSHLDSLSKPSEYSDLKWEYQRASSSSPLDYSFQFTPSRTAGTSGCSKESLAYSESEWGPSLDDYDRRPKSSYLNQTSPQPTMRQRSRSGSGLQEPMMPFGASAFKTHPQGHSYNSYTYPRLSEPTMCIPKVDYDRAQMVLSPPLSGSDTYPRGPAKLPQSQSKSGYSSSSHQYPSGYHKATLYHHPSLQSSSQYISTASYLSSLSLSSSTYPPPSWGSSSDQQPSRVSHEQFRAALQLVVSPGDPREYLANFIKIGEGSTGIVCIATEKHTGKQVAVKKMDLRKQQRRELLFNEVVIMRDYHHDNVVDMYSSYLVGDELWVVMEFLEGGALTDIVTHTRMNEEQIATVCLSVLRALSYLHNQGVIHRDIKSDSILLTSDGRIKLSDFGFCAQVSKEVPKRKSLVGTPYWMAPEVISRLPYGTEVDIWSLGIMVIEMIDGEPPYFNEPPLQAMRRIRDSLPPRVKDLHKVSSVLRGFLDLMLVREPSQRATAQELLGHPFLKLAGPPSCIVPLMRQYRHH
Sequence of FYN (human) (P06241 whole entry, looked up): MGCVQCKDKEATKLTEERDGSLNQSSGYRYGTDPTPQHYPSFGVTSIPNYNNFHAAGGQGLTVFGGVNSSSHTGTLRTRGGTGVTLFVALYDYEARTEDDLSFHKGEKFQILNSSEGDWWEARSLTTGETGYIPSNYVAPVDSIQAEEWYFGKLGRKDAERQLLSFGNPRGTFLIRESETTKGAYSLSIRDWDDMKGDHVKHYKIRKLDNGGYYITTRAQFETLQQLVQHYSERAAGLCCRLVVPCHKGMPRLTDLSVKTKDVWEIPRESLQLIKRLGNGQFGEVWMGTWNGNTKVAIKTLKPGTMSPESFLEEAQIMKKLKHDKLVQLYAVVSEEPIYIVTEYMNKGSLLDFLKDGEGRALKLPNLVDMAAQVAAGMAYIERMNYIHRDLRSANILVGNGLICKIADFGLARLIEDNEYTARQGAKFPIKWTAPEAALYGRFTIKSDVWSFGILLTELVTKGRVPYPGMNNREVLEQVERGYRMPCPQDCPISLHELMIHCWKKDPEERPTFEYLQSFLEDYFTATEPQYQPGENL
Sequence of MAPK14 (human) (Q16539 whole entry, looked up): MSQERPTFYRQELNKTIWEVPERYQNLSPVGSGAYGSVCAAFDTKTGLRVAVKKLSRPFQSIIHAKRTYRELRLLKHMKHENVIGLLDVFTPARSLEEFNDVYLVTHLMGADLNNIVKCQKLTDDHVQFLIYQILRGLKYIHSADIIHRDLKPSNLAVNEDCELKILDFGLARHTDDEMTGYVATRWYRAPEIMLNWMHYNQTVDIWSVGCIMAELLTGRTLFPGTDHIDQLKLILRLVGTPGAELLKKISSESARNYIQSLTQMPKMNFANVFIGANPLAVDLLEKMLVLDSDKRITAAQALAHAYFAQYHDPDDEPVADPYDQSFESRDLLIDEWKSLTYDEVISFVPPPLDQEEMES

O=C(c1cc2cc(O)ccc2[nH]1)c1cc2cc(O)ccc2[nH]1
residual activity (ABL2 (human)): 27.2%
residual activity (ACVRL1 (human)): 98.4%
residual activity (AKT1 (human)): 98.2%
residual activity (BRSK1 (human)): 53.6%
residual activity (CAMK2A (human)): 74.5%
residual activity (CAMK2B (human)): 93.4%
residual activity (CDK2 CCNA2 (human)): 61.5%
residual activity (CLK1 (human)): 82.1%
residual activity (DSTYK (human)): 95.5%
residual activity (DYRK2 (human)): 89%
residual activity (DYRK4 (human)): 99.7%
residual activity (FGFR1 (human)): 86.5%
residual activity (FGFR3 (human)): 92.1%
residual activity [1]: 67.1%
residual activity (FRK (human)): 86.1%
residual activity (FYN (human)): 28.8%
residual activity (GRK7 (human)): 99.8%
residual activity (ITK (human)): 77.7%
residual activity [2]: 93.6%
residual activity (MAP3K5 (human)): 89.6%
residual activity (MAP4K5 (human)): 28.7%
residual activity (MAPK14 (human)): 103%
residual activity (MAPK3 (human)): 107%
residual activity (MAPK8 (human)): 112%
residual activity (MERTK (human)): 81.8%
residual activity (MINK1 (human)): 9.87%
residual activity (NEK11 (human)): 96.7%
residual activity (NEK2 (human)): 101%
residual activity (NUAK1 (human)): 69.2%
residual activity (PAK4 (human)): 111%
residual activity (PAK7 (human)): 85.3%
residual activity (PHKG1 (human)): 72.1%
residual activity (PTK2B (human)): 85.5%
residual activity (ROCK2 (human)): 92.9%
residual activity (RPS6KA6 KD1 KD2 (human)): 26.7%
residual activity (STK10 (human)): 70.3%
residual activity (STK11 (human)): 101%
residual activity (STK24 (human)): 70.4%
residual activity (STK25 (human)): 105%
residual activity [3]: 66.7%
residual activity (WNK2 (human)): 96.6%
residual activity (ZAP70 (human)): 101%

O=C1NC(=O)c2c1c1c3ccccc3[nH]c1n1cncc21
residual activity (ABL2 (human)): 79.9%
residual activity (ACVRL1 (human)): 109%
residual activity (AKT1 (human)): 102%
residual activity (BRSK1 (human)): 22.5%
residual activity (CAMK2A (human)): 55.1%
residual activity (CAMK2B (human)): 58.2%
residual activity (CDK2 CCNA2 (human)): 75.9%
residual activity (CLK1 (human)): 84%
residual activity (DSTYK (human)): 106%
residual activity (DYRK2 (human)): 64.1%
residual activity (DYRK4 (human)): 107%
residual activity (FGFR1 (human)): 55.2%
residual activity (FGFR3 (human)): 85%
residual activity [1]: 56.6%
residual activity (FRK (human)): 96.8%
residual activity (FYN (human)): 97.7%
residual activity (GRK7 (human)): 96.2%
residual activity (ITK (human)): 71.4%
residual activity [2]: 65.7%
residual activity (MAP3K5 (human)): 97.8%
residual activity (MAP4K5 (human)): 13.5%
residual activity (MAPK14 (human)): 101%
residual activity (MAPK3 (human)): 87.8%
residual activity (MAPK8 (human)): 83.9%
residual activity (MERTK (human)): 53.9%
residual activity (MINK1 (human)): 48.2%
residual activity (NEK11 (human)): 99%
residual activity (NEK2 (human)): 87.5%
residual activity (NUAK1 (human)): 12.1%
residual activity (PAK4 (human)): 97.1%
residual activity (PAK7 (human)): 80%
residual activity (PHKG1 (human)): 70.8%
residual activity (PTK2B (human)): 70.1%
residual activity (ROCK2 (human)): 93.2%
residual activity (RPS6KA6 KD1 KD2 (human)): 33.4%
residual activity (STK10 (human)): 69%
residual activity (STK11 (human)): 45.2%
residual activity (STK24 (human)): 48.4%
residual activity (STK25 (human)): 72.5%
residual activity [3]: 85.4%
residual activity (WNK2 (human)): 86.6%
residual activity (ZAP70 (human)): 87.8%
